Results on ten compounds are retold here after ChEMBL document CHEMBL3580645, “Antiviral Activity of Flexibilane and Tigliane Diterpenoids from Stillingia lineata” (J Nat Prod, 2015).

Series [1] in a line: in vitro. The conditions noted are these: human, MT4 cells.
A short description of series [2]: in vitro. The conditions noted are these: monkey, Vero cells.
The subject of series [3] is Human immunodeficiency virus 2. In words: microbe, parasite or virus in culture. Particulars: Human immunodeficiency virus 2, ISOLATE ROD, MT4, 120 h.
A short description of series [4]: in vitro. Particulars: chlorocebus sabaeus, Vero cells.
For series [5], the system named is Human immunodeficiency virus 1. The experiment in a line: microbe, parasite or virus in culture. The conditions noted are these: Human immunodeficiency virus 1, 3B, MT4, 120 h.
The subject of a further series is PC-3. In words: Cytotoxicity against human PC3 cells at 1 uM after 72 hrs by MTS assay. It is filed as functional. Particulars: PC-3, 72 h.
Another series concerns HCT-116. The experiment in a line: Cytotoxicity against human HCT116 cells at 1 uM after 72 hrs by MTS assay. It is filed as functional. Particulars: HCT-116, 72 h. For orientation: Formazan colour is commonly taken as a measure of viable cells.
The test system of a further series is Chikungunya virus. The experiment in a line: microbe, parasite or virus in culture. Particulars: strain 899, Vero.
The nature of series [6]: in vitro. Particulars: human, MT4 cells. This is another data set of the same source.
Another series concerns MCF7. The experiment in a line: Cytotoxicity against human MCF7 cells at 1 uM after 72 hrs by MTS assay. It is filed as functional. The conditions noted are these: MCF7, 72 h.
The nature of series [7]: in vitro. Particulars: human, MT4 cells. This is another data set of the same source.
The next series concerns Semliki Forest virus. The experiment in a line: microbe, parasite or virus in culture. The conditions noted are these: strain Vietnam, Vero.
The next series deals with Sindbis virus. The experiment in a line: microbe, parasite or virus in culture. The conditions noted are these: strain HRsp, Vero.
Series [8] is described as follows: in vitro. The conditions noted are these: monkey, Vero cells. This is another data set of the same source.

The EC50 is the concentration giving half of the maximal effect. A lower EC50 goes with an effect from little substance. As usually defined, the CC50 is the concentration that lowers cell viability or growth by half. Read a high CC50 as better tolerance by the cells. Usually inhibition stands for the change of the read-out against control, counted positive when it falls. Lower therefore signals little suppression. With `CCC(C)C(=O)O[C@@]12[C@H](OC(C)=O)[C@@H](C)[C@]3(O)[C@@H]4C=C(C)C(=O)[C@@H]4CC(CO)=C[C@H]3[C@@H]1C2(C)C` (stereo not given in full), the selectivity ratio in the series “in vitro [1]” stood at 4; in the series “in vitro [2]”, 1.4. Further, the EC50 in [3] was 13 µM; in series [5], over 85 µM; in the series on Chikungunya virus it was 77 µM. The CC50 at 72 h in the series “in vitro [4]” is 105 µM; in the series “in vitro [6]” it was 85 µM. Besides, the inhibition at 1 µM in the series with PC-3, with HCT-116 and in the series on MCF7 was under 40% throughout.

Consider `CCC(C)C(=O)O[C@@]12[C@H](OC(C)=O)[C@@H](C)[C@@]3(O)[C@@H](C=C(CO)C[C@]4(O)C(=O)C(C)=C[C@@H]34)[C@@H]1C2(C)C` (stereo not given in full), for which the selectivity ratio in “in vitro [1]” came out at 949; in the series “in vitro [2]” it was 41; in “in vitro [7]”, 376. Moreover, the EC50 in series [3] is 0.107 µM; in [5], 0.271 µM; in the series on Chikungunya virus, 3.3 µM; with Semliki Forest virus, over 255 µM; in the series on Sindbis virus, over 255 µM. The CC50 at 72 h in “in vitro [4]” turned out to be 134 µM; in the series “in vitro [6]” it was 102 µM. Besides, the inhibition at 1 µM in the series on PC-3, with HCT-116 and in the series on MCF7 was under 40% each time.

In the case of `CC/C=C/C=C/C=C\C(=O)O[C@@H]1[C@@H](C)[C@]2(O)[C@@H]3C=C(C)C(=O)[C@@H]3CC(CO)=C[C@H]2[C@@H]2C(C)(C)[C@]12OC(=O)CCC`, the selectivity ratio in the series “in vitro [1]” turned out to be 33; in the series “in vitro [2]”, 5.1; in “in vitro [8]”, 1.4; in the series “in vitro [7]” it was 36. For the same compound, the EC50 was 0.174 µM in [3]; 0.233 µM in series [5]; 1.4 µM with Chikungunya virus; over 177 µM in the series on Semliki Forest virus; 5 µM with Sindbis virus. The figures for the 50% cytotoxic concentration (CC50) at 72 h in the series “in vitro [4]” and in the series “in vitro [6]” were 7.1 µM and 8.4 µM, respectively. Further, the inhibition at 1 µM with PC-3, in the series with HCT-116 and in the series on MCF7 was under 40% in each case.

For `CCCCCCCCC(=O)/C=C/C=C/C=C/C(=O)O[C@@]12C[C@@H](C)[C@@]3(O)[C@@H](C=C(CO)C[C@]4(O)C(=O)C(C)=C[C@@H]34)[C@@H]1C2(C)C`, the selectivity ratio in the series “in vitro [1]” came to 1430; in “in vitro [2]”, 5.9; in the series “in vitro [8]”, 1.2; in “in vitro [7]” it was 299. For the same compound, the EC50 in series [3] is 0.018 µM; in [5], 0.043 µM; in the series on Chikungunya virus it was 2.2 µM; in the series on Semliki Forest virus, over 168 µM; in the series with Sindbis virus it was 11 µM. The half-maximal cytotoxic concentration (CC50) at 72 h in “in vitro [4]” and in the series “in vitro [6]” was 13 µM each time. Also, the inhibition at 1 µM in the series with PC-3, with HCT-116 and in the series on MCF7 was under 40% in each case.

On to `CCC(C)C(=O)O[C@@]12C[C@@H](C)[C@@]3(O)[C@@H](C=C(CO)C[C@]4(O)C(=O)C(C)=C[C@@H]34)[C@@H]1C2(C)C` (stereo not given in full), for which the selectivity ratio was 2060 in “in vitro [1]”, over 240 in “in vitro [2]” and 899 in the series “in vitro [7]”. Moreover, the EC50 in [3] was 0.056 µM; in series [5], 0.129 µM; in the series on Chikungunya virus, 1.2 µM; in the series on Semliki Forest virus, over 289 µM; in the series with Sindbis virus it was over 289 µM. Besides, the values for the CC50 at 72 h in “in vitro [4]” and in “in vitro [6]” were over 289 µM and 116 µM, respectively. For the same compound, the inhibition at 1 µM in the series on PC-3, in the series with HCT-116 and in the series with MCF7 was under 40% each time.

For `CCN(CC)CCCC(C)Nc1ccnc2cc(Cl)ccc12` (stereo not given) [CHLOROQUINE], it took 89 µM to reach half-maximal cytotoxicity in the series “in vitro [4]” (CC50 at 72 h).

As for `O=c1[nH]cnc2c1ncn2[C@H]1CC[C@@H](CO)O1` [DIDANOSINE], the selectivity ratio in the series “in vitro [1]” is over 5.2; in the series “in vitro [7]” it was over 4.6. Moreover, the EC50 in series [3] was 9.6 µM; in [5], 10.8 µM. The CC50 at 72 h in “in vitro [6]” is over 50 µM.

On to `Nc1ccn([C@@H]2CS[C@H](CO)O2)c(=O)n1` [LAMIVUDINE], for which the selectivity ratio was over 5.6 in the series “in vitro [1]” and over 22 in “in vitro [7]”. Besides, the 50% effective concentration (EC50) in series [3] is 15.5 µM; in [5], 3.9 µM. Moreover, the CC50 at 72 h in “in vitro [6]” is over 87 µM.

In the case of `Cc1ccnc2c1NC(=O)c1cccnc1N2C1CC1` [NEVIRAPINE], the EC50 in [3] is over 15 µM; in series [5], 0.01 µM. The selectivity ratio in the series “in vitro [7]” was found to be 148. In the series “in vitro [6]”, this compound showed a half-maximal cytotoxic concentration (CC50) at 72 h of over 15 µM.

For the compound `Cc1cn([C@H]2C[C@H](N=[N+]=[N-])[C@@H](CO)O2)c(=O)[nH]c1=O` [ZIDOVUDINE], the CC50 at 72 h in “in vitro [6]” is over 25 µM.
